US20240383784A1, “ANTIMICROBIAL SYSTEM AND METHOD” (KEMIRA OYJ, priority 2021, published 2024)

Experiments:
[1] = test system: Meiothermus silvanus biofilms; assay: Biofilm test on 96-microwell peg lids in synthetic paper machine water, Crystal Violet quantification; format: cell-based; details: SPW; for Impact (biofilm reduction percentage): 45° C., 150 rpm
Text: (§1) Pure cultures of Meiothermus silvanus, a microbe species commonly found in paper machine biofilms (Ekman J, Journal of Industrial Microbiology & Biotechnology 34:203-211) and Pseudoxanthomonas taiwanensis, another species commonly found in paper machine environments (Desjardins, E & Beaulieu, C, Journal of Industrial Microbiology & Biotechnology 30:141-145) were used to study the efficacy of various chemicals to prevent biofilm formation.
(§2) Biofilm tests were done in fibre-containing synthetic paper machine water, SPW (prepared according to Peltola, et al., J. Ind. Microbiol. Biotechnol. 38: 1719-1727) using 96-microwell plate wells with peg lids (Thermo Fischer Scientific Inc., USA). Plates were incubated at 45° C. with a rotary shaking (150 rpm) providing high flow in each well.
(§3) Wells of 96-microwell plates with peg-lids were filled with SPW and inoculated with the pure bacterial cultures. Biofilm was grown at 45° C. with a rotary shaking (150 rpm) for 24 hours without addition of any chemical compound to be tested.
(§4) After 24 hours from starting the test, the wells were emptied and a fresh solution of SPW, inoculated with the pure bacterial cultures and with different amounts of chemical compounds to be tested were added and the original peg-lid was placed back in place. After an additional 24 hours the wells were emptied and the biofilm amount on the pegs was quantified.
(§5) The amount of biofilm formed on the peg surfaces was quantified with a staining solution by adding 200 μl of 1% Crystal Violet (Merck Millipore KGaA, Germany) in methanol to each well in a clean 96-well plate and placing the biofilm-containing peg-lid on it. After 3 minutes the wells were emptied and the wells and pegs were rinsed 3 times with tap water. Finally the peg-lid was placed in a clean 96-well plate, the attached Crystal Violet was dissolved into ethanol and the absorbance at 595 nm was measured.
(§6) All parts per million (ppm) amounts given in Examples 1-2 are as active ingredients. The Impact values are calculated as biofilm reduction percentages based on a comparison with no added chemicals. A positive value indicates a reduction in amount of biofilm whereas a negative value indicates an increase in the amount of biofilm.

[2] = test system: Pseudoxanthomonas taiwanensis biofilms; assay: as above; format: cell-based; details: SPW; for Impact (biofilm reduction percentage): 45° C., 150 rpm
Text: as §1, §2, §3, §4, §5, §6

[3] = Sodium hypochlorite 4 ppm alone
[4] = Sodium hypochlorite 8 ppm alone
[5] = on its own, up to a dosage of 8 or 16 ppm

Cc1ccc(S(=O)(=O)C=CC#N)cc1 [Compound A, 3-[(4-methylphenyl)sulphonyl]-2-propenenitrile]
Impact (biofilm reduction percentage) ([1]; Compound A 0.15 ppm alone, Table 1): 7%
Impact (biofilm reduction percentage) ([1]; Compound A 0.3 ppm alone, Table 1): −7%
Impact (biofilm reduction percentage) ([1]; Compound A 0.3 ppm alone, Table 3): −15%
Impact (biofilm reduction percentage) ([1]; Compound A 0.45 ppm alone, Table 3): 11%
biofilm reduction efficacy (in words) ([1]; at low dosages): ineffective
Impact (biofilm reduction percentage) ([2]; Compound A 0.15 ppm alone, Table 2): 5%
Impact (biofilm reduction percentage) ([2]; Compound A 0.15 ppm alone, Table 4): 19%
Impact (biofilm reduction percentage) ([2]; Compound A 0.3 ppm alone, Table 2): 7%
biofilm reduction efficacy (in words) ([2]; at low dosages): ineffective

NCl [MCA, Monochloramine]
Impact (biofilm reduction percentage) ([1]; MCA 0.5 ppm alone): −22%
Impact (biofilm reduction percentage) ([1]; MCA 1 ppm alone): 4%
Impact (biofilm reduction percentage) ([1]; MCA 1.5 ppm alone): −2%
biofilm reduction efficacy (in words) ([1]; at low dosages): ineffective
Impact (biofilm reduction percentage) ([2]; MCA 0.5 ppm alone): −11%
Impact (biofilm reduction percentage) ([2]; MCA 1 ppm alone): −3%
Impact (biofilm reduction percentage) ([2]; MCA 1.5 ppm alone): 7%
biofilm reduction efficacy (in words) ([2]; at low dosages): ineffective

OCl [Sodium hypochlorite, reference compound]
Impact (biofilm reduction percentage) ([1]; Sodium hypochlorite 2 ppm alone): −71%
Impact (biofilm reduction percentage) [1, 3]: 1%
Impact (biofilm reduction percentage) [1, 4]: 5%
biofilm reduction efficacy (in words) [1, 5]: ineffective
Impact (biofilm reduction percentage) [2, 3]: −3%
Impact (biofilm reduction percentage) [2, 4]: −5%
Impact (biofilm reduction percentage) ([2]; Sodium hypochlorite 16 ppm alone): 0%
biofilm reduction efficacy (in words) [2, 5]: ineffective
